Measurements: BigSolDB 2.1

O=[N+]([O-])c1cn[nH]c1[N+](=O)[O-]
solubility (mole fraction)
Conditions | 298.15 K | 303.15 K | 308.15 K | 313.15 K | 318.15 K | 323.15 K | 328.15 K | 333.15 K | 338.15 K
in anisole | 0.043 | 0.058 | 0.0778 | 0.103 | 0.138 | 0.181 | 0.237 | 0.313 | 0.411
in benzene | 0.00171 | 0.00211 | 0.00264 | 0.00317 | 0.00389 | 0.00482 | 0.00585 | 0.00742 | 0.00936
in chlorobenzene | 0.0012 | 0.00147 | 0.0018 | 0.00218 | 0.00266 | 0.00328 | 0.00402 | 0.00494 | 0.00609
in isopropanol | 0.388 | 0.413 | 0.441 | 0.472 | 0.509 | 0.547 | 0.588 | 0.642 | 0.7
in n-butanol | 0.318 | 0.348 | 0.387 | 0.411 | 0.444 | 0.489 | 0.528 | 0.586 | 0.648
in toluene | 0.00201 | 0.0024 | 0.00291 | 0.00345 | 0.00411 | 0.00499 | 0.00601 | 0.00725 | 0.00877
